Tests used:
Type in all cases: biochemical
[1] = target: T1, actPTPκ (PTPkappa) (Homo sapiens, UniProt Q15262, H1056C/V1053C/Y1055C); assay: pNPP phosphatase assay (activation, dose dependence); also in-gel fluorescence of labelled protein in lysate
T1 construct: gene PTPRK; His6-tagged catalytic domain, residues 870–1154
T1 sequence (Q15262 869-1153 V1053C/Y1055C/H1056C): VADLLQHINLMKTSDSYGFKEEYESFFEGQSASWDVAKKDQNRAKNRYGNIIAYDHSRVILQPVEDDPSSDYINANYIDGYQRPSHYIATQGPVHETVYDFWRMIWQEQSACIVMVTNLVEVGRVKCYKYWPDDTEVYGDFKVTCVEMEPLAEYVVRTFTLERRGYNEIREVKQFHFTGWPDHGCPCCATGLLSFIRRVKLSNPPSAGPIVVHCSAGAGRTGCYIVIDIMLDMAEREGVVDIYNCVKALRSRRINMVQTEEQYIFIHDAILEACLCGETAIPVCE

[2] = target: T2, actHePTP (hematopoietic PTP) (Homo sapiens, UniProt P35236, E262C/S263C/T260C); assay: as above
T2 construct: gene PTPN7; His6-tagged catalytic domain, residues 65–360
T2 sequence (P35236 65-360 T260C/E262C/S263C): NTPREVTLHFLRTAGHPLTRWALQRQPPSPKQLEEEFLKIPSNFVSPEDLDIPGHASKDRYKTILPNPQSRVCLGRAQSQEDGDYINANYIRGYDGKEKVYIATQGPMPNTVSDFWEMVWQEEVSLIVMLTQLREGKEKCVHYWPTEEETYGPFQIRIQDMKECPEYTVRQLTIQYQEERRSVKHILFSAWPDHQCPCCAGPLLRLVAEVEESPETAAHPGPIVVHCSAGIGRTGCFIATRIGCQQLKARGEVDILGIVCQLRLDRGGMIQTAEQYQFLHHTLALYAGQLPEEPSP

[3] = target: T3, actSHP2 (Src-homology-2-domain-containing PTP 2) (Homo sapiens, UniProt Q06124, C333P/V428C/S430C/D431C); assay: pNPP phosphatase assay (activation at […])
T3 construct: gene PTPN11; His6-tagged catalytic domain
T3 sequence (Q06124 247-517 C333P/V428C/S430C/D431C limits assumed): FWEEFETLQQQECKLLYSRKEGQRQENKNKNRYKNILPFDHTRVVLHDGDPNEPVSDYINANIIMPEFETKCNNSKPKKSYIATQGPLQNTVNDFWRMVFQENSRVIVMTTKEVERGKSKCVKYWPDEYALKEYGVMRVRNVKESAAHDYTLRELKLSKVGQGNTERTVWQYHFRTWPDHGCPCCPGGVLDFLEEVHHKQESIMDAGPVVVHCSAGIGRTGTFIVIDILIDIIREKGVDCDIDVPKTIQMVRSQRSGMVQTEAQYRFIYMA

For `CC1(C)C(/C=C/C=C/C=C2/N(CCCCS(=O)(=O)O)c3ccc([As]4SCCS4)cc3C2(C)C)=[N+](CCCCS(=O)(=O)[O-])c2ccc([As]3SCCS3)cc21` [AsCy5], the AC50 [1] was ~600 nM, the AC50 [2] was ~200 nM and the “pNPP phosphatase assay (activation at 1 μM)” value [3] was “Both cyanine-derived biarsenicals, AsCy3 and AsCy5, were more successful in activating actSHP2 than FlAsH and ReAsH”.
